“Also recorded” adds a separate entry of the source. Each block holds one substance with its values, some of them ahead of it.
Legend:
[1] = test system: KDM7A PHD finger; experiment: Peptide pulldown (immunoblot); type: binding, human; details: n = 2
Procedure: (§1) The 31 GST-tagged PHD readers identified in the PHD finger domain array were expressed and purified as previously. Histone peptide arrays and peptide pulldown assays were conducted as recently described (specifically, the optimized protocol from Petell et al. for the former).
(§2) Figure S5. Peptide Pulldowns with KDM7A and KDM5B (PPC2W2). Representative immunoblot analysis of peptide pulldowns for the PHD fingers of KDM7A and KDM5B (PHD1) with the peptides indicated on the top of the image (n=2).

[2] = test system: KDM5A (PHD3); experiment: PHD finger domain microarray; type: binding, human
Excerpt: (§3) To define the histone binding preferences of the PHD finger proteome, we expressed and purified 123 annotated human PHD-containing domains as GST-tagged recombinant fusions from E. coli. The recombinant proteins consisted of either PHD fingers in isolation, or as tandem domains if a given PHD finger was located adjacent to another reader domain (e.g., one or more PHD fingers, Tudor, chromo and/or bromodomains) (Additional file 1: Table S1). These GST fusions were printed in duplicate on nitrocellulose-coated microarray slides and probed with biotinylated peptides that represented the N-termini of H3, H4, H2A or H2B (Fig. 1a and Additional file 2: Figure S1). As the majority of PHD readers thus far characterized are H3K4me0/3 readers, we included additional peptides (H3K4 as either mono-, di-, or trimethylated) to further determine any H3K4 methyl preference (Additional file 2: Figure S2 and Fig. 1b). As a control, we also probed these microarrays with an α-Tubulin peptide (a.a. 30–50) that would not be predicted to interact with PHD fingers (Additional file 2: Figure S1). […] We also cannot exclude the possibility that some PHD fingers might not be functionally active on the microarrays (perhaps due to misfolding or the lack of an important adjacent region).
(§4) The protein domain microarray was designed to include 123 GST-tagged PHD-domain containing recombinant proteins. Protein domain microarray development and probing was as previously. Briefly, recombinant proteins were synthesized and cloned into pGEX-4T-1 vector by Biomatik Corporation. These GST-PHD readers were subsequently expressed, purified, and spotted in duplicate onto nitrocellulose-coated glass slides (Oncyte Avid slides, Grace Bio-Labs) using a pin arrayer (Aushon 2470, Aushon). For probing, microarray slides were blocked with 3% milk, 3% bovine serum albumin, 0.1% Tween 20 in PBS. Biotinylated peptides were pre-labeled with streptavidin-Cy3 fluorophore (GE Healthcare) and incubated with the blocked array slides. Slides were then washed with PBST and allowed to air dry. Fluorescent interactions were visualized using a GenePix 4200A Microarray Scanner (Molecular Devices).

[3] = test system: KDM5B (PHD3); details: cited from earlier work
Excerpt: While findings between the domain microarrays and peptide microarrays largely agreed, there were some interesting differences. […] It should be noted that the comparison made here is between the H3K4me3 + K9ac + K18ac and the H3K4me0 + K9ac + K18ac peptides. Due to the limited binding, if any, ...

[4] = test system: CHD4; details: cited from earlier work
Excerpt: Plant homeodomain fingers comprise one of the largest families of reader domains, with over 100 human proteins containing this module. PHD fingers are Zn-coordinating domains that generally recognize unmodified or methylated lysines. To date, the majority of those characterized bind to histone H3 tails either methylated at K4 [7], or unmodified in that position (i.e., KDM5B PHD3 versus KDM5B PHD1 [10, 11] or PHF21A, also known as BHC80 [12]).

[5] = test system: KDM5B (PHD1); experiment: Peptide pulldown (immunoblot); type: binding, human; details: n = 2
Procedure: as §1, §2

[6] = test system: KDM5B (PHD1); experiment: PHD finger domain microarray; type: binding, human
Excerpt: as §3, §4

[7] = test system: PHF21A; experiment: PHD finger domain microarray; type: binding, human
Excerpt: as §3, §4

[8] = test system: KDM5A (PHD1); experiment: PHD finger domain microarray; type: binding, human
Excerpt: as §3, §4

[9] = test system: TRIM66 (PB); experiment: PHD finger domain microarray; type: binding, human
Excerpt: as §3, §4

[10] = test system: AIRE (PP); experiment: PHD finger domain microarray; type: binding, human
Excerpt: as §3, §4

binding in peptide pulldown [1]: binds H3K4me3
Substance: H3K4me3: H3 1-20 [Peptide H3K4me3]
binding preference [2]: consistent with their current classification as H3K4me3 binders
reported binding [3]: reported to bind H3K4me3

Substance: H3K9me3: H3 1-20 [Peptide H3K9me3]
reported binding [4]: annotated to recognize H3K9me3; also recorded: reported as readers of H3K9 trimethylation

binding in peptide pulldown [5]: reads H3K4me0
binding preference ([9]; listed as unmodified H3 tail): readers of the unmodified H3 tail
Substance: H3 (1-20): unmodified H3 N-terminal peptide (1–20)
binding preference [6]: preference for the unmethylated H3K4 state
binding preference [7]: preference for the unmethylated H3K4 state
binding preference [8]: preference for the unmethylated H3K4 state
binding preference ([9]; listed as unmethylated H3K4): preference for the unmethylated H3K4 state
binding preference [10]: preference for the unmethylated H3K4 state
